Measured values from US11034725B2, “Compositions and methods for treating cardiovascular disease” (Genentech, Inc., priority 2016, dated 2021).
Read-outs that look alike come from different tables or passages of the source. Numbered stars: 1 amine (or outer) side, 2 acyl side, 3 side chain; on linkers, the order of the positions; unused ones are H or OH. Bridge positions count the residues as written; N and C are the ends. Square brackets hold non-standard residues; d marks the D form. Peptide text beside a SMILES is read from it. NH(CH2)9CO = O=C(CCCCCCCCCN[*:1])[*:2]; NH(CH2)8CO = O=C(CCCCCCCCN[*:1])[*:2]; Aoc = NCCCCCCCC(=O)O

What was measured:
PCSK9 = PCSK9 (Homo sapiens, UniProt Q8NBP7); test: PCSK9/EGF(A) TR-FRET binding assay; conditions: TR-FRET, read-out: PCSK9/EGF(A) IC50
His-EGF(A)-Fc = His-EGF(A)-Fc TR-FRET counterscreen; conditions: TR-FRET counterscreen; Table 8D; * = some inhibition at highest concentrations, not sufficient to fit an IC50
PCSK9Δhelix = target: T1, PCSK9Δhelix (Homo sapiens, UniProt Q8NBP7); test: PCSK9Δhelix/Ab20 TR-FRET binding assay; conditions: for IC50: TR-FRET, Table 8D, disulfide-cyclized extension peptides, read-out: PCSK9Δhelix/Ab20 IC50
T1 construct: Human PCSK9 construct M1-Q692 with an engineered TEV site (residue deletion Y166, R167); made in house; host or cells: CHO
Method: The former was based on a TF-FRET assay to measure the association of the EGF(A) domain of the LDLR to PCSK9 (“PCSK9/EGF(A) binding assay”) whilst the latter was based on a TR-FRET assay to measure binding of Ab20 to PCSK9Δhelix (“PCSK9Δhelix/Ab20 binding assay”).
The ability of compounds to inhibit binding to PCSK9 was evaluated with a panel of time-resolved fluorescence resonance energy transfer (TR-FRET) binding assays. […] The PCSK9Δhelix/Ab20 binding assay evaluated the ability of compounds to compete with Ab20 for binding to the N-terminal groove region in a His-tagged, PCSK9Δhelix construct. […] Signal generation in the PCSK9 binding assays was dependent upon the binding interaction to bring into close proximity the His-tag on the PCSK9 and the Fc-tag on the ligand. Anti-His-APC was bound to the His-tag, and anti-Fc-europium was bound to the Fc-tag. When these two antibodies were in close proximity and were irradiated with light at 340 nm, the europium was excited and emitted energy at 615 nm. This energy was taken up by the APC and was emitted as light at 665 nm. Compounds that competed with the ligand reduced the energy transfer and thus the emission at 665 nm. In the His-EGFA-Fc molecule in the counterscreen, the two tags were always in close proximity, thus any reduction in emission at 665 nm was due to interference with the detection system.
Compounds were solubilized and dilutions were prepared in DMSO. […] The plate was centrifuged to mix the well contents and allowed to incubate for 30 min. […] The TR-FRET signal was read on a ViewLux reader (PerkinElmer) with excitation at 340 nm and emission at 615 and 665 nm with a 50-μs time delay between excitation and measurement of emission. The TR-FRET ratio was calculated as the fluorescence emission at 665 nm divided by the fluorescence emission at 615 nm. The normalized TR-FRET ratios were plotted as a function of the compound concentrations, and the IC50 values were determined using a 4-parameter logistic regression.
In black 1536-well assay plates (MaKO, Aurora® Microplates, Whitefish, Mont.), 40 nL of peptide in DMSO were preincubated with 2 μL His-tagged PCSK9 plus anti-His-allophycocyanin in assay buffer (50 mM Tris-HCl, pH 7.5, 150 mM NaCl, 2 mM CaCl2, 0.01% Tween®-20, 0.1% bovine gamma globulins, and protease inhibitor cocktail) for 30 min. Then 2 μL of Fc-tagged ligand and anti-Fc-europium in assay buffer were added and allowed to incubate for 2 h.

[1] = Table 8D, disulfide-cyclized extension peptides

T1 sequence (Q8NBP7 with tags, fused parts or gaps limits assumed): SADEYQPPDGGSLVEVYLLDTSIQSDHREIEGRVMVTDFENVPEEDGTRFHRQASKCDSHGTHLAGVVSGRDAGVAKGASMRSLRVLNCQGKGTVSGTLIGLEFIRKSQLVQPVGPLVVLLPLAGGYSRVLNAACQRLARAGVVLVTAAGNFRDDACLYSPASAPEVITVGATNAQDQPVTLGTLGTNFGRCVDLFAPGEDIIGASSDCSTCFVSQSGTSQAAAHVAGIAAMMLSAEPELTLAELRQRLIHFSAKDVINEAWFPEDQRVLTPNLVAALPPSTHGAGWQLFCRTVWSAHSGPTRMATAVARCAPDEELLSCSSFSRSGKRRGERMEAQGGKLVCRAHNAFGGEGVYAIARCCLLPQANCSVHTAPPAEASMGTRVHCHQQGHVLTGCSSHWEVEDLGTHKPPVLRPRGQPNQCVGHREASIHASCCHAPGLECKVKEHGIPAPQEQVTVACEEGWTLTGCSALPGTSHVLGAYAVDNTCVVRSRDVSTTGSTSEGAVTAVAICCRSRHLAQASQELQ
T1 sequence (Q8NBP7 31-152 partner limits assumed): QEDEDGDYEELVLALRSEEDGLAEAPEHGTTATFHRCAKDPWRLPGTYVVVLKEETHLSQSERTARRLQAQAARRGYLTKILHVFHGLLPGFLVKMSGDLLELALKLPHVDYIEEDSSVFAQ
Chain of PCSK9 (Q8NBP7 153-692): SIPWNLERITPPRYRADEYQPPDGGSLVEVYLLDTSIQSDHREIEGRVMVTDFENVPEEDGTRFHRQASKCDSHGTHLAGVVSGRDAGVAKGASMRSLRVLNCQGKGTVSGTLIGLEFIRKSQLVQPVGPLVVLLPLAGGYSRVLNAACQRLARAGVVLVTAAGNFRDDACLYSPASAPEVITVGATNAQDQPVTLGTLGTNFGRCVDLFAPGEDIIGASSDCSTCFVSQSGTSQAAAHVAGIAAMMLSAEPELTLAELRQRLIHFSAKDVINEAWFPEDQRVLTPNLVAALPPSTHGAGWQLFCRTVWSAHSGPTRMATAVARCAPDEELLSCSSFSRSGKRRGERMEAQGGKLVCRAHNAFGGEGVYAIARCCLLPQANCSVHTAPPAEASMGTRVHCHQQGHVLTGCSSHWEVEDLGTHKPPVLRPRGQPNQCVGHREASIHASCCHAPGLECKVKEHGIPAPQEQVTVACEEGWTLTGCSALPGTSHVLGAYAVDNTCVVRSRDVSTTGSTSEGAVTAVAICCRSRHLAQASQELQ
Chain of PCSK9 (Q8NBP7 31-152 partner limits assumed): as the sequence (Q8NBP7 31-152 partner limits assumed) above

| Structure (SMILES) | IC50 (PCSK9; [1]) [µM] | IC50 (His-EGF(A)-Fc) [µM] | IC50 (PCSK9Δhelix) [µM] | inhibition in the PCSK9Δhelix/Ab20 binding assay (PCSK9Δhelix) | IC50 (PCSK9; Example 7) [µM] |
| --- | --- | --- | --- | --- | --- |
| CC[C@H](C)[C@@H]1NC(=O)[C@H](CCCNC(=N)N)NC(=O)[C@H](CCC(N)=O)NC(=O)[C@H](CC(C)C)NC(=O)[C@H](CC(N)=O)NC(=O)[C@H](Cc2c[nH]c3ccccc23)NC(=O)[C@@H]2CCCN2C(=O)[C@H](CC(C)C)NC(=O)[C@H](CCCNC(=N)N)NC(=O)[C@@H](NC(C)=O)CSSC[C@@H](C(N)=O)NC(=O)CNC(=O)CNC(=O)CNC1=O [Compound 81] (Ac-CRLPWNLQRIGGGC-NH2; disulfide 1-14) | > 50 | > 50 | 28.8 | – | – |
| CC(=O)N[C@H]1CSSC[C@@H](C(N)=O)NC(=O)CCCCCCCCCNC(=O)[C@H](CCCNC(=N)N)NC(=O)[C@H](CCC(N)=O)NC(=O)[C@H](CC(C)C)NC(=O)[C@H](CC(N)=O)NC(=O)[C@H](Cc2c[nH]c3ccccc23)NC(=O)[C@@H]2CCCN2C(=O)[C@H](CC(C)C)NC(=O)[C@H](CCCNC(=N)N)NC1=O [Compound 84] (Ac-CRLPWNLQR[NH(CH2)9CO]C-NH2; disulfide 1-11) | > 50 | > 50 | > 50 | removes inhibition | – |
| CC(=O)N[C@H]1CSSC[C@@H](C(N)=O)NC(=O)CCCCCCCCNC(=O)[C@H](CCCNC(=N)N)NC(=O)[C@H](CCC(N)=O)NC(=O)[C@H](CC(C)C)NC(=O)[C@H](CC(N)=O)NC(=O)[C@H](Cc2c[nH]c3ccccc23)NC(=O)[C@@H]2CCCN2C(=O)[C@H](CC(C)C)NC(=O)[C@H](CCCNC(=N)N)NC1=O [Compound 85] (Ac-CRLPWNLQR[NH(CH2)8CO]C-NH2; disulfide 1-11) | > 50 | > 50 | > 50 | removes inhibition | – |
| CC(=O)N[C@H]1CSSC[C@@H](C(N)=O)NC(=O)CCCCCCCNC(=O)[C@H](CCCNC(=N)N)NC(=O)[C@H](CCC(N)=O)NC(=O)[C@H](CC(C)C)NC(=O)[C@H](CC(N)=O)NC(=O)[C@H](Cc2c[nH]c3ccccc23)NC(=O)[C@@H]2CCCN2C(=O)[C@H](CC(C)C)NC(=O)[C@H](CCCNC(=N)N)NC1=O [Compound 86] (Ac-CRLPWNLQR[Aoc]C-NH2; disulfide 1-11) | > 50 | > 50 | > 50 | removes inhibition | – |
| CC[C@H](C)[C@@H]1NC(=O)[C@H](CCCNC(=N)N)NC(=O)[C@H](CCCCN)NC(=O)[C@H](CC(C)C)NC(=O)[C@H](CC(N)=O)NC(=O)[C@H](Cc2c[nH]c3ccccc23)NC(=O)[C@H](CC(C)C)NC(=O)[C@@H](NC(=O)CNC(C)=O)CSSC[C@@H](C(=O)N[C@@H](Cc2c[nH]c3ccccc23)C(=O)N[C@@H](Cc2ccccc2)C(N)=O)NC(=O)[C@H](CCC(N)=O)NC(=O)[C@H](CO)NC(=O)CNC1=O [Compound 87] (Ac-GCLWNLKRIGSQCWF-NH2; disulfide 2-13 (inferred)) | > 50 | > 50 | 9.53 | – | – |
| CC[C@H](C)[C@@H]1NC(=O)[C@H](CCCNC(=N)N)NC(=O)[C@H](C)NC(=O)[C@H](CC(C)C)NC(=O)[C@H](CC(N)=O)NC(=O)[C@H](Cc2c[nH]c3ccccc23)NC(=O)[C@H](CC(C)C)NC(=O)[C@@H](NC(=O)[C@H](Cc2ccccc2)NC(C)=O)CSSC[C@@H](C(=O)N[C@@H](Cc2c[nH]c3ccccc23)C(=O)N[C@@H](Cc2ccccc2)C(N)=O)NC(=O)[C@H](CCC(N)=O)NC(=O)[C@H](CO)NC(=O)CNC1=O [Compound 88] (Ac-FCLWNLARIGSQCWF-NH2; disulfide 2-13) | – | > 50 | 7.46 | – | 17.9 |
| CC[C@H](C)[C@@H]1NC(=O)[C@H](CCCNC(=N)N)NC(=O)[C@H](CCCCN)NC(=O)[C@H](CC(C)C)NC(=O)[C@H](CC(N)=O)NC(=O)[C@H](Cc2c[nH]c3ccccc23)NC(=O)[C@H](CC(C)C)NC(=O)[C@@H](NC(=O)[C@@H](N)Cc2c[nH]c3ccccc23)CSSC[C@@H](C(=O)N[C@@H](Cc2c[nH]c3ccccc23)C(=O)N[C@@H](Cc2ccccc2)C(N)=O)NC(=O)[C@H](CCC(N)=O)NC(=O)[C@H](CO)NC(=O)CNC1=O [Compound 89] (H-WCLWNLKRIGSQCWF-NH2; disulfide 2-13) | 6.9 | 38.4 | 2.98 | – | – |
| CC[C@H](C)[C@@H]1NC(=O)[C@H](CCCNC(=N)N)NC(=O)[C@H](CCCCN)NC(=O)[C@H](CC(C)C)NC(=O)[C@H](CC(N)=O)NC(=O)[C@H](Cc2c[nH]c3ccccc23)NC(=O)[C@H](CC(C)C)NC(=O)[C@@H](NC(=O)[C@H](Cc2ccccc2)NC(C)=O)CSSC[C@@H](C(=O)N[C@@H](CCC(=O)O)C(=O)N[C@@H](Cc2ccc(O)cc2)C(N)=O)NC(=O)[C@H](CCC(N)=O)NC(=O)[C@H](CO)NC(=O)CNC1=O [Compound 95] (Ac-FCLWNLKRIGSQCEY-NH2; disulfide 2-13) | > 50 | > 50 | 12.7 | – | – |
| CC[C@H](C)[C@@H]1NC(=O)[C@H](CCCNC(=N)N)NC(=O)[C@H](CCC(N)=O)NC(=O)[C@H](CC(C)C)NC(=O)[C@H](CC(N)=O)NC(=O)[C@H](Cc2c[nH]c3ccccc23)NC(=O)[C@@H]2CCCN2C(=O)[C@H](CC(C)C)NC(=O)[C@H](CCCNC(=N)N)NC(=O)[C@@H](NC(C)=O)CSSC[C@@H](C(N)=O)NC(=O)[C@H]2CCCN2C(=O)[C@H](CC(C)C)NC(=O)CNC1=O [Compound 99] (Ac-CRLPWNLQRIGL[dP]C-NH2; disulfide 1-14) | > 50 | > 50 | 1.3 | – | – |
| CC[C@H](C)[C@@H]1NC(=O)[C@H](CCCNC(=N)N)NC(=O)[C@H](CCC(N)=O)NC(=O)[C@H](CC(C)C)NC(=O)[C@H](CC(N)=O)NC(=O)[C@H](Cc2c[nH]c3ccccc23)NC(=O)[C@@H]2CCCN2C(=O)[C@H](CC(C)C)NC(=O)[C@H](CCCNC(=N)N)NC(=O)[C@@H](NC(C)=O)CSSC[C@@H](C(N)=O)NC(=O)[C@@H]2CCCN2C(=O)[C@@H](CC(C)C)NC(=O)CNC1=O [Compound 100] (Ac-CRLPWNLQRIG[dL]PC-NH2; disulfide 1-14) | > 50 | > 50 | > 50 | – | – |
| CC[C@@H](C)[C@H]1NC(=O)[C@H](CCCNC(=N)N)NC(=O)[C@H](CCC(N)=O)NC(=O)[C@H](CC(C)C)NC(=O)[C@H](CC(N)=O)NC(=O)[C@H](Cc2c[nH]c3ccccc23)NC(=O)[C@@H]2CCCN2C(=O)[C@H](CC(C)C)NC(=O)[C@H](CCCNC(=N)N)NC(=O)[C@@H](NC(C)=O)CSSC[C@@H](C(N)=O)NC(=O)[C@@H]2CCCN2C(=O)[C@H](CC(C)C)NC(=O)CNC1=O [Compound 101] (Ac-CRLPWNLQR[dI]GLPC-NH2; disulfide 1-14) | > 50 | > 50 | > 50 | – | – |
| CC[C@H](C)[C@@H]1NC(=O)[C@@H](CCCNC(=N)N)NC(=O)[C@H](CCC(N)=O)NC(=O)[C@H](CC(C)C)NC(=O)[C@H](CC(N)=O)NC(=O)[C@H](Cc2c[nH]c3ccccc23)NC(=O)[C@@H]2CCCN2C(=O)[C@H](CC(C)C)NC(=O)[C@H](CCCNC(=N)N)NC(=O)[C@@H](NC(C)=O)CSSC[C@@H](C(N)=O)NC(=O)[C@@H]2CCCN2C(=O)[C@H](CC(C)C)NC(=O)CNC1=O [Compound 102] (Ac-CRLPWNLQ[dR]IGLPC-NH2; disulfide 1-14) | > 50 | > 50 | > 50 | – | – |
